# Experimental data: ChEMBL document CHEMBL5325486, “Synthesis of novobiocin derivatives and evaluation of their antigonococcal activity and pharmacokinetics” (Bioorg Med Chem, 2023)
# Legend:
# Staphylococcus aureus = assay: Antibacterial activity against Staphylococcus aureus assessed inhibition of bacterial growth; type: functional
# Neisseria gonorrhoeae = assay: Antibacterial activity against resistant Neisseria gonorrhoeae assessed inhibition of bacterial growth; type: functional
SMILES,MIC50 (Staphylococcus aureus),MIC90 (Staphylococcus aureus),MIC50 (Neisseria gonorrhoeae),MIC90 (Neisseria gonorrhoeae)
CO[C@@H]1[C@@H](OC(=O)c2ccc(C)[nH]2)[C@@H](O)[C@H](Oc2ccc3c(O)c(NC(=O)c4ccccc4)c(=O)oc3c2C)OC1(C)C,0.063 µg/mL,0.125 µg/mL,1 µg/mL,1 µg/mL
CO[C@@H]1[C@@H](OC(=O)NOC(C)(C)C)[C@@H](O)[C@H](Oc2ccc3c(O)c(NC(=O)c4ccc(O)c(CC=C(C)C)c4)c(=O)oc3c2C)OC1(C)C,1 µg/mL,1 µg/mL,16 µg/mL,64 µg/mL
CO[C@@H]1[C@@H](OC(=O)c2ccc(C)[nH]2)[C@@H](O)[C@H](Oc2ccc3c(O)c(NC(=O)c4cccc(N5CCN(C)CC5)c4)c(=O)oc3c2C)OC1(C)C,0.5 µg/mL,0.5 µg/mL,1 µg/mL,1 µg/mL
C=CCONC(=O)O[C@H]1[C@@H](O)[C@H](Oc2ccc3c(O)c(NC(=O)c4ccc(O)c(CC=C(C)C)c4)c(=O)oc3c2C)OC(C)(C)[C@@H]1OC,0.125 µg/mL,0.25 µg/mL,1 µg/mL,2 µg/mL
CO[C@@H]1[C@@H](OC(=O)c2cc(Cl)c(C)[nH]2)[C@@H](O)[C@H](Oc2ccc3c(O)c(NC(=O)c4ccc(O)c(CC=C(C)C)c4)c(=O)oc3c2C)OC1(C)C,0.063 µg/mL,0.125 µg/mL,0.5 µg/mL,1 µg/mL
CO[C@@H]1[C@@H](OC(=O)c2ccc[nH]2)[C@@H](O)[C@H](Oc2ccc3c(O)c(NC(=O)c4ccc(O)c(CC=C(C)C)c4)c(=O)oc3c2C)OC1(C)C,0.125 µg/mL,0.25 µg/mL,0.5 µg/mL,1 µg/mL
CO[C@@H]1[C@@H](NC(=O)c2ccc(C)[nH]2)[C@@H](O)[C@H](Oc2ccc3c(O)c(NC(=O)c4ccc(O)c(CC=C(C)C)c4)c(=O)oc3c2C)OC1(C)C,2 µg/mL,2 µg/mL,32 µg/mL,64 µg/mL
C=Cc1cc(C(=O)Nc2c(O)c3ccc(O[C@@H]4OC(C)(C)[C@H](OC)[C@@H](OC(=O)c5ccc(C)[nH]5)[C@H]4O)c(C)c3oc2=O)ccn1,0.5 µg/mL,1 µg/mL,0.5 µg/mL,0.5 µg/mL
CO[C@@H]1[C@H](NC(=O)c2ccc(C)[nH]2)[C@@H](O)[C@H](Oc2ccc3c(O)c(NC(=O)c4ccc(O)c(CC=C(C)C)c4)c(=O)oc3c2C)OC1(C)C,> 128 µg/mL,> 128 µg/mL,64 µg/mL,> 64 µg/mL
CO[C@@H]1[C@@H](OC(=O)NOCC(C)C)[C@@H](O)[C@H](Oc2ccc3c(O)c(NC(=O)c4ccc(O)c(CC=C(C)C)c4)c(=O)oc3c2C)OC1(C)C,0.5 µg/mL,1 µg/mL,4 µg/mL,16 µg/mL
CO[C@@H]1[C@@H](OC(=O)c2[nH]c(C)cc2C)[C@@H](O)[C@H](Oc2ccc3c(O)c(NC(=O)c4ccc(O)c(CC=C(C)C)c4)c(=O)oc3c2C)OC1(C)C,0.063 µg/mL,0.125 µg/mL,0.25 µg/mL,0.25 µg/mL
CO[C@@H]1[C@@H](OC(=O)c2ccc(C)[nH]2)[C@@H](O)[C@H](Oc2ccc3c(O)c(NC(=O)c4ccnc(Oc5cccnc5)c4)c(=O)oc3c2C)OC1(C)C,0.5 µg/mL,1 µg/mL,0.5 µg/mL,1 µg/mL
CCc1cc(C(=O)Nc2c(O)c3ccc(O[C@@H]4OC(C)(C)[C@H](OC)[C@@H](OC(=O)c5ccc(C)[nH]5)[C@H]4O)c(C)c3oc2=O)ccn1,0.5 µg/mL,1 µg/mL,0.5 µg/mL,1 µg/mL
CO[C@@H]1[C@@H](OC(=O)c2ccc(C)[nH]2)[C@@H](O)[C@H](Oc2ccc3c(O)c(NC(=O)c4ccncc4)c(=O)oc3c2C)OC1(C)C,4 µg/mL,8 µg/mL,1 µg/mL,1 µg/mL
C#CCCNC(=O)O[C@H]1[C@@H](O)[C@H](Oc2ccc3c(O)c(NC(=O)c4ccc(O)c(CC=C(C)C)c4)c(=O)oc3c2C)OC(C)(C)[C@@H]1OC,0.5 µg/mL,0.5 µg/mL,16 µg/mL,32 µg/mL
